In PubChem BioAssay (NCI):
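Test compounds were applied to cells in 96-well plates for 48 hours at 5 doses. The concentration for 50% growth inhibition is given as GI50. TGI: concentration producing complete growth inhibition.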

Assays:
Test in all cases: NCI-60 cell line screen, 48 h
CAKI-1 renal = tested on: CAKI-1 renal
HCT-116 colon = tested on: HCT-116 colon
M14 melanoma = tested on: M14 melanoma
NCI-H460 lung = tested on: NCI-H460 lung
NCI-H522 lung = tested on: NCI-H522 lung
SNB-19 CNS = tested on: SNB-19 CNS
TK-10 renal = tested on: TK-10 renal
U251 CNS = tested on: U251 CNS
UACC-257 melanoma = tested on: UACC-257 melanoma
DU-145 prostate = tested on: DU-145 prostate

| Compound | TGI (CAKI-1 renal) | TGI (HCT-116 colon) | TGI (M14 melanoma) | TGI (NCI-H460 lung) | TGI (NCI-H522 lung) | TGI (SNB-19 CNS) | TGI (TK-10 renal) | TGI (U251 CNS) | TGI (UACC-257 melanoma) | GI50 (CAKI-1 renal) | GI50 (DU-145 prostate) | TGI (DU-145 prostate) | GI50 (HCT-116 colon) | GI50 (M14 melanoma) | GI50 (NCI-H460 lung) | GI50 (SNB-19 CNS) | GI50 (TK-10 renal) | GI50 (U251 CNS) | GI50 (UACC-257 melanoma) |
| --- | --- | --- | --- | --- | --- | --- | --- | --- | --- | --- | --- | --- | --- | --- | --- | --- | --- | --- | --- |
| COC1OC2COC(c3ccccc3)OC2C(O)C1Br (stereo not drawn) | > 100 µM | > 100 µM | > 100 µM | > 100 µM | > 100 µM | > 100 µM | > 100 µM | > 100 µM | > 100 µM |  |  |  |  |  |  |  |  |  |  |
| O=C(Nc1ccn(CCI)c(=O)n1)c1ccccc1 | > 100 µM | > 100 µM | > 100 µM | > 100 µM | > 100 µM |  | > 100 µM | > 100 µM | > 100 µM |  |  |  |  |  |  |  |  |  |  |
| CCC(Oc1ccc(OC)c2ccccc(=O)c12)C(=O)O (stereo not drawn) |  | > 100 µM | > 100 µM | > 100 µM | > 100 µM | > 100 µM | > 100 µM | > 100 µM | > 100 µM |  |  |  |  |  |  |  |  |  |  |
| O=S(=O)(NCCNc1nccc(-c2c(-c3ccc(F)cc3)nc3sccn23)n1)c1ccccc1 | > 100 µM | 14.9 µM | > 100 µM | > 100 µM |  | > 100 µM | 73.5 µM | 26.9 µM | 72.8 µM | 3.24 µM | 5.14 µM | > 100 µM | 2.36 µM | 4.94 µM | 2.72 µM | 9.88 µM | 9.41 µM | 6.45 µM | 10.6 µM |
| CC(C)c1cc(OCC(O)CO)cc(C(C)C)c1 (stereo not drawn) | > 100 µM | > 100 µM | > 100 µM | > 100 µM | > 100 µM | > 100 µM | > 100 µM | > 100 µM | > 100 µM |  |  |  |  |  |  |  |  |  |  |
| O=C1C2Nc3ccccc3SC2C(=O)N1c1ccccc1C(F)(F)F (stereo not drawn) | > 100 µM | > 100 µM | 75.8 µM | > 100 µM | 56.3 µM | > 100 µM | > 100 µM | 45.2 µM | > 100 µM |  |  |  |  |  |  |  |  |  |  |
| O=C(O)CCSC(=O)Nc1ccc(N=Nc2ccccc2)cc1 | > 100 µM | > 100 µM | > 100 µM | > 100 µM |  | > 100 µM | > 100 µM | > 100 µM | > 100 µM |  |  |  |  |  |  |  |  |  |  |
| CC1=C(C(=O)Nc2ccc([N+](=O)[O-])cc2)C(c2ccccc2F)C(C(=O)Nc2ccc([N+](=O)[O-])cc2)=C(C)N1 | 68.9 µM | 31.5 µM | 49.4 µM | 69.7 µM | 35 µM | > 100 µM | > 100 µM | 76.6 µM | 48.7 µM |  |  |  |  |  |  |  |  |  |  |
